Molecules are shown by their SMILES. Values after ≈ are worked out from the molar mass of the structure shown.

As usually defined, the IC50 is the point on the concentration scale where inhibition reaches its midpoint. As usually defined, the EC50 is the concentration that produces a half-maximal response. One may read the inhibition as the relative decrease from the control value, in per cent.

One assay in a line: Antioxidant activity assessed as BHT equivalent of DPPH radical scavenging activity. The assay is classed as functional.
Conditions: not given
(In general: DPPH is a stable violet radical that fades when it is reduced.)
On to `O=C(CCc1ccc(O)cc1)c1c(O)cc(O)cc1O`, for which the Activity is 1.27 mg. Regarding `O=C(CCc1ccc(O)cc1)c1c(O)cc(O[C@@H]2O[C@H](CO)[C@@H](O)[C@H](O)[C@H]2O)cc1O`, the Activity is 0.89 mg.

The next assay is described as follows: Antioxidant activity assessed as DPPH radical scavenging activity. The assay is classed as functional.
Conditions: not given
For `O=C(c1ccccc1)c1ccc(O)cc1Br`, the IC50 amounted to 19.24 µg/mL. `O=C(/C=C/c1ccc(O)c(O)c1)O[C@@H]1C[C@@](O)(C(=O)O)C[C@@H](O)[C@@H]1O`: the EC50 came out at 13.4 µg/mL (≈ 37.8 µM). In the case of `O=C(O)CN1C(=O)S/C(=C\c2cn(-c3ccccc3)nc2-c2ccccc2)C1=O`, the IC50 worked out at 128.55 µg/mL.

With `O=C(/C=C/c1ccc(O)c(O)c1)O[C@H](Cc1ccc(O)c(O)c1)C(=O)O` [ROSMARINIC ACID], the IC50 is 0.4 µg/mL. The same measure, in the same setting: next, `C[C@H]1O[C@H](O[C@H]2[C@H](O)[C@@H](O)[C@@H](O[C@H]3[C@H](O)[C@@H](O)C(O)O[C@@H]3CO)O[C@@H]2CO)[C@H](O)[C@@H](O)[C@@H]1N[C@H]1C=C(CO)[C@@H](O)[C@H](O)[C@H]1O` (some centres not stated) [ACARBOSE]: 81.12 µg/mL; `O=C(O)/C=C/c1ccc(O)c(O)c1` [CAFFEIC ACID]: 0.8 µg/mL.

Turning to `COc1ccc(-c2nn(-c3ccccc3)cc2/C=C2\SC(=O)N(Cc3ccccc3)C2=O)cc1`, the IC50 was 127.18 µg/mL. For the compound `COC(=O)c1c2c(c3ccccc3c1O)OC(C)(C)C=C2` [MOLLUGIN], the IC50 was 0.7 µg/mL. The same measure, in the same setting: next, `O=C(c1cc(O)c(O)c(O)c1)c1cc(O)c(Br)cc1O`: 14.43 µg/mL. In the case of `O=C(/C=C/c1ccc(O)c(O)c1)O[C@@H]1C[C@](O)(C(=O)O)C[C@@H](O)[C@H]1O` [CHLOROGENIC ACID], the EC50 came to 13.8 µg/mL (≈ 38.9 µM).

As to `Oc1cc(Cc2ccccc2)c(O)cc1Br`, the IC50 was 13.32 µg/mL.

As to `CNc1cc(/C=C/c2cc(/C=C/c3ccc(OCC(N)=O)c(OC)c3)[nH]n2)ccc1OCC(N)=O`, the IC50 stood at 20 µg/mL. Same read-out and setting: next, `Oc1ccc(Cc2cc(O)c(Br)cc2O)cc1`: 13.86 µg/mL. On the same count and under the same terms, next, `COC(=O)c1c(O)c2ccccc2c2occc12` [FUROMOLLUGIN]: 100 µg/mL; `O=C(c1ccc(O)c(O)c1)c1cc(O)c(Br)cc1O`: 16.44 µg/mL. The same measure, in the same setting: next, `COc1cc(/C=C/C(=O)CC(=O)/C=C/c2ccc(O)c(OC)c2)ccc1O` [CURCUMIN]: 28 µg/mL; `O=C1S/C(=C\c2cn(-c3ccccc3)nc2-c2ccc(O)cc2)C(=O)N1Cc1ccccc1`: 110.88 µg/mL; `CC1(C)C=Cc2c(C(=O)O)c(O)c3ccccc3c2O1`: 42.5 µg/mL.

The same assay, now with this note: read-out: IC50.
`O=C(O)C1CS[C@@H](c2ccccc2)N1` (some centres not stated): the IC50 was determined as 1540 nM. As to `COc1ccccc1[C@H]1NC(C(=O)O)CS1` (some centres not stated), the half-maximal inhibitory concentration (IC50) stood at 1500 nM. `Cc1ccc([C@H]2NC(C(=O)O)CS2)cc1` (some centres not stated): the IC50 amounted to 1220 nM.

Regarding `O=C(O)C1CS[C@@H](c2cccc(Cl)c2)N1` (some centres not stated), the IC50 worked out at 1520 nM.

In the case of `O=C(O)C1CS[C@@H](c2cccc(F)c2F)N1` (some centres not stated), the IC50 stood at 830 nM. The same measure, in the same setting: next, `O=C(O)C1CS[C@@H](c2cccc(Cl)c2Cl)N1` (some centres not stated): 930 nM.

Another assay in a line: Antioxidant activity by ORAC-FL method. Type of assay: functional. Also noted: reference not given here.
Conditions: not given
`O=c1c2cccc(Cl)c2[se]n1-c1ccc2cccc(O)c2n1` came in with an Activity of 0.9 µmol. Still for that read-out and setting: next, `O=c1c2c(C(F)(F)F)cccc2[se]n1-c1ccc2cccc(O)c2n1`: 0.2 µmol; `O=c1c2cccc(F)c2[se]n1-c1ccc2cccc(O)c2n1`: 3.6 µmol; `O=c1c2cccc(C(F)(F)F)c2[se]n1-c1ccc2cccc(O)c2n1`: 0.3 µmol. On the same count and under the same terms, next, `O=c1c2c(F)cccc2[se]n1-c1ccc2cccc(O)c2n1`: 2.3 µmol.

Another assay is described as follows: Antioxidant activity assessed as DPPH radical scavenging activity at 0.25 mg/ml incubated for 30 mins relative to control. The assay is classed as functional.
Conditions: not given
For `COc1cc2c(Nc3ccc(O)cc3)c([N+](=O)[O-])cnc2cc1OCCCN1CCC(C)CC1`, the Activity was found to be 36%.

Another assay in a line: Antioxidant activity assessed as DPPH radical scavenging activity at 1 mg/ml incubated for 30 mins relative to control. Type of assay: functional.
Conditions: not given
With `COc1cc2c(Nc3ccc(O)cc3)c([N+](=O)[O-])cnc2cc1OCCCN1CCC(C)CC1`, the Activity was determined as 84%.

The next assay in a line: Antioxidant activity assessed as DPPH radical scavenging activity by measuring inhibition rate relative to control. The assay is classed as functional. Set-up: concentration or dose not given beside the values. Conditions: dose or concentration not given here.
In the case of `CSc1nc2nc(NNC(=S)NC3CCCCC3)c3ccccc3n2n1`, the inhibition is 91.2%. Turning to `CSc1nc2nc(NN)c3ccccc3n2n1`, the inhibition came to 85.9%.

As for `C=CCNC(=S)NNc1nc2nc(SC)nn2c2ccccc12`, the inhibition was 91%. With `CSc1nc2nc(N/N=C/c3cccnc3)c3ccccc3n2n1`, the inhibition was determined as 65%. On the same count and under the same terms, next, `CSc1nc2nc(N/N=C(\C)c3ccc([N+](=O)[O-])cc3)c3ccccc3n2n1`: 78%.

The next assay is described as follows: Antioxidant activity assessed as DPPH radical scavenging activity by measuring inhibition rate at 60 ug/ml incubated for 50 mins in dark by UV-Vis spectrophotometric analysis relative to control. Conditions: dose 60.0 µg/ml. Type of assay: functional.
Consider `COc1cc(-c2nc3ccc(N4CCN(C)CC4)cc3[nH]2)ccc1O`, for which the inhibition was found to be 63.6%.

For the compound `CN1CCN(c2ccc3nc(-c4ccc(O)c(O)c4)[nH]c3c2)CC1`, the inhibition stood at 76.8%.

In the case of `Oc1ccc(-c2nc3ccc(N4CCOCC4)cc3[nH]2)cc1O`, the inhibition was 77%. Same read-out and setting: next, `COc1cc(-c2nc3ccc(N4CCOCC4)cc3[nH]2)ccc1O`: 76.1%.

Another assay can be described thus: Antioxidant activity assessed as trolox equivalent of DPPH radical scavenging activity. Type of assay: functional.
Conditions: not given
On to `O=C(N/N=C/c1c(O)cc(O)cc1O)c1cc2ccccc2[nH]1`, for which the Activity came out at 4190 µmol/g. On the same count and under the same terms, next, `O=C(N/N=C/c1ccccc1O)c1cc2ccccc2[nH]1`: 8.71 µmol/g. In the case of `COc1cccc(/C=N/NC(=O)c2cc3ccccc3[nH]2)c1O`, the Activity was determined as 38.7 µmol/g. The same measure, in the same setting: next, `O=C(N/N=C/c1ccc(O)cc1O)c1cc2ccccc2[nH]1`: 2000 µmol/g. Take `O=C(N/N=C/c1cc(Br)ccc1O)c1cc2ccccc2[nH]1`: the Activity was found to be 14.2 µmol/g. Still for that read-out and setting: next, `O=C(N/N=C/c1cc(O)ccc1O)c1cc2ccccc2[nH]1`: 9960 µmol/g; `O=C(N/N=C/c1ccc(O)c(O)c1O)c1cc2ccccc2[nH]1`: 12800 µmol/g.

A further assay in a line: Antioxidant activity assessed as DPPH radical scavenging activity incubated for 30 mins under dark condition. The assay is classed as functional.
Conditions: not given
On to `CCn1c(-n2cc(/C=N/N=c3/scc(-c4ccc(Br)cc4)n3-c3ccccc3)c(-c3ccc(OC)cc3)n2)nc2c1c(=O)n(C)c(=O)n2C`, for which the IC50 turned out to be 4.89 µg/mL (≈ 6.64 µM). Still for that read-out and setting: next, `CCn1c(-n2cc(/C=N/NC(N)=S)c(-c3ccc(Cl)cc3)n2)nc2c1c(=O)n(C)c(=O)n2C`: 10.24 µg/mL (≈ 21.1 µM); `CCn1c(-n2cc(/C=N/N=c3\[nH]c(-c4ccc(Br)cc4)cs3)c(-c3ccc(Cl)cc3)n2)nc2c1c(=O)n(C)c(=O)n2C`: 5.71 µg/mL (≈ 8.59 µM).

The next assay in a line: Antioxidant activity assessed as trolox equivalent of ABTS-radical scavenging activity. The assay is classed as functional.
Conditions: not given
For the compound `Cc1cc(N2CCN(c3cccc(C4CC(=O)c5ccccc5O4)c3)CC2)nc(-c2ccccc2O)n1` (configuration not stated), the Activity worked out at 369 µmol/g.

Regarding `O=C1CC(c2cccc(N3CCN(c4nc5ccccc5s4)CC3)c2)Oc2ccccc21` (configuration not stated), the Activity was found to be 464 µmol/g. Take `COc1ccc2c(=O)cc(-c3ccc(N4CCN(c5nc6ccccc6s5)CC4)cc3)oc2c1`: the Activity worked out at 317 µmol/g.

The next assay is described as follows: Antioxidant activity assessed as ABTS-radical scavenging activity measured upto 6 mins.
Conditions: not given
Type of assay: functional.
Consider `O=C(/C=C/c1ccc(/C=C/C(=O)c2ccc(Oc3ccccc3)cc2)cc1)c1ccc(Oc2ccccc2)cc1`, for which the Activity was determined as 174 µg/mL.

As to `O=C(/C=C/c1ccc(/C=C/C(=O)c2ccc3c(c2)OCO3)cc1)c1ccc2c(c1)OCO2`, the Activity came to 220 µg/mL.

The record behind these values is ChEMBL document CHEMBL5230099, “Free radical scavengers: An overview on heterocyclic advances and medicinal prospects” (Eur J Med Chem, 2020).
